Measurements taken from PubChem BioAssay AID1963429 (Molecular Pharmacology Branch, DTP, NCI, 2024).

Test system: 126254-015-R-J1-PDC complex spheroid growth, % test/control
Test: Anticancer human tumor 126254-015-R-J1-PDC patient-derived soft tissue sarcoma cell line growth inhibition [Asc]
Conditions: for IC50: curve of first compound; for viability, T/C: stronger effect = lower value; active = viability on the fitted dose curve at most 10% of control; inactive = the rest
In short: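 Stromal components (HUVEC and hMSC) are co-assembled with the cancer cells into multicellular spheroids. Drugs are then added singly or paired, at concentrations falling by half-log increments from a clinically achievable maximum, capped at 10 microM without known Cmax.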
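Also: spheroids exposed to compound for seven days.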
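For viability, T/C in this document: 100% = DMSO vehicle control wells.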

O=C(c1ccc(F)c(F)c1Nc1ccc(I)cc1F)N1CC(O)([C@@H]2CCCCN2)C1 + CNC(C)C(=O)NC1CN(S(=O)(=O)c2cccc(S(=O)(=O)N3CCC4CCC(C(=O)NC(c5ccccc5)c5ccccc5)N4C(=O)C(NC(=O)C(C)NC)C3)c2)CCC2CCC(C(=O)NC(c3ccccc3)c3ccccc3)N2C1=O
594 nM: IC50 (second compound 0.01 µM)
164 nM: IC50 (second compound 0.1 µM)
inactive: viability, T/C (second compound 0.01 µM, first compound 0.00316 µM) 82.4% | viability, T/C (second compound 0.01 µM, first compound 0.01 µM) 87.6% | viability, T/C (second compound 0.01 µM, first compound 0.0316 µM) 79.8% | viability, T/C (second compound 0.01 µM, first compound 0.1 µM) 90.9% | viability, T/C (second compound 0.01 µM, first compound 0.316 µM) 66.9% | viability, T/C (second compound 0.01 µM, first compound 1 µM) 36% | viability, T/C (second compound 0.0316 µM, first compound 0.00316 µM) 84.2% | viability, T/C (second compound 0.0316 µM, first compound 0.01 µM) 72.7% | viability, T/C (second compound 0.0316 µM, first compound 0.0316 µM) 67.9% | viability, T/C (second compound 0.0316 µM, first compound 0.1 µM) 67.2% | viability, T/C (second compound 0.0316 µM, first compound 0.316 µM) 55.1% | viability, T/C (second compound 0.0316 µM, first compound 1 µM) 33% | viability, T/C (second compound 0.1 µM, first compound 0.00316 µM) 59.7% | viability, T/C (second compound 0.1 µM, first compound 0.01 µM) 67.3% | viability, T/C (second compound 0.1 µM, first compound 0.0316 µM) 67.5% | viability, T/C (second compound 0.1 µM, first compound 0.1 µM) 59.6% | viability, T/C (second compound 0.1 µM, first compound 0.316 µM) 37% | viability, T/C (second compound 0.1 µM, first compound 1 µM) 28.1% | viability, T/C (second compound 0.316 µM, first compound 0.00316 µM) 62.5% | viability, T/C (second compound 0.316 µM, first compound 0.01 µM) 62.8% | viability, T/C (second compound 0.316 µM, first compound 0.0316 µM) 54.6% | viability, T/C (second compound 0.316 µM, first compound 0.1 µM) 51.3% | viability, T/C (second compound 0.316 µM, first compound 0.316 µM) 30.1% | viability, T/C (second compound 0.316 µM, first compound 1 µM) 19.1% | viability, T/C (second compound 1 µM, first compound 0.00316 µM) 56.9% | viability, T/C (second compound 1 µM, first compound 0.01 µM) 54.1% | viability, T/C (second compound 1 µM, first compound 0.0316 µM) 54.3% | viability, T/C (second compound 1 µM, first compound 0.1 µM) 49.3% | viability, T/C (second compound 1 µM, first compound 0.316 µM) 27% | viability, T/C (second compound 1 µM, first compound 1 µM) 21.1%
377 nM: IC50 (second compound 0.0316 µM)
85.2 nM: IC50 (second compound 1 µM)
86.6 nM: IC50 (second compound 0.316 µM)

Cc1nc(N2CCC3(CC2)COC(C)C3N)c(CO)nc1Sc1ccnc(N)c1Cl (stereo not given) + CNC(C)C(=O)NC1CN(S(=O)(=O)c2cccc(S(=O)(=O)N3CCC4CCC(C(=O)NC(c5ccccc5)c5ccccc5)N4C(=O)C(NC(=O)C(C)NC)C3)c2)CCC2CCC(C(=O)NC(c3ccccc3)c3ccccc3)N2C1=O
196 nM: IC50 (second compound 1 µM)
264 nM: IC50 (second compound 0.316 µM)
inactive: viability, T/C (second compound 0.01 µM, first compound 0.00949 µM) 93.8% | viability, T/C (second compound 0.01 µM, first compound 0.03 µM) 91.4% | viability, T/C (second compound 0.01 µM, first compound 0.0949 µM) 76.8% | viability, T/C (second compound 0.01 µM, first compound 0.3 µM) 65.9% | viability, T/C (second compound 0.01 µM, first compound 0.949 µM) 63.4% | viability, T/C (second compound 0.01 µM, first compound 3 µM) 46.8% | viability, T/C (second compound 0.0316 µM, first compound 0.00949 µM) 76% | viability, T/C (second compound 0.0316 µM, first compound 0.03 µM) 73.8% | viability, T/C (second compound 0.0316 µM, first compound 0.0949 µM) 67.9% | viability, T/C (second compound 0.0316 µM, first compound 0.3 µM) 67.5% | viability, T/C (second compound 0.0316 µM, first compound 0.949 µM) 48.4% | viability, T/C (second compound 0.0316 µM, first compound 3 µM) 42.2% | viability, T/C (second compound 0.1 µM, first compound 0.00949 µM) 72.7% | viability, T/C (second compound 0.1 µM, first compound 0.03 µM) 63% | viability, T/C (second compound 0.1 µM, first compound 0.0949 µM) 57.6% | viability, T/C (second compound 0.1 µM, first compound 0.3 µM) 52.5% | viability, T/C (second compound 0.1 µM, first compound 0.949 µM) 49.4% | viability, T/C (second compound 0.1 µM, first compound 3 µM) 35.5% | viability, T/C (second compound 0.316 µM, first compound 0.00949 µM) 57.8% | viability, T/C (second compound 0.316 µM, first compound 0.03 µM) 55.4% | viability, T/C (second compound 0.316 µM, first compound 0.0949 µM) 56.3% | viability, T/C (second compound 0.316 µM, first compound 0.3 µM) 52.1% | viability, T/C (second compound 0.316 µM, first compound 0.949 µM) 38.6% | viability, T/C (second compound 0.316 µM, first compound 3 µM) 41.9% | viability, T/C (second compound 1 µM, first compound 0.00949 µM) 57.6% | viability, T/C (second compound 1 µM, first compound 0.03 µM) 59.6% | viability, T/C (second compound 1 µM, first compound 0.0949 µM) 59.6% | viability, T/C (second compound 1 µM, first compound 0.3 µM) 44.7% | viability, T/C (second compound 1 µM, first compound 0.949 µM) 30% | viability, T/C (second compound 1 µM, first compound 3 µM) 33.5%
2520 nM: IC50 (second compound 0.01 µM)
443 nM: IC50 (second compound 0.1 µM)
893 nM: IC50 (second compound 0.0316 µM)
